Measurements published in patent publication US20030134880A1, “Novel cd23 inhibitors” (priority 2000, published 2003).
pIC50: −log10 of the molar value.

Target: T1, human recombinant collagenase (Homo sapiens, UniProt P03956)
T1 construct: made in house; host or cells: E. coli
T1 sequence (P03956 100-469): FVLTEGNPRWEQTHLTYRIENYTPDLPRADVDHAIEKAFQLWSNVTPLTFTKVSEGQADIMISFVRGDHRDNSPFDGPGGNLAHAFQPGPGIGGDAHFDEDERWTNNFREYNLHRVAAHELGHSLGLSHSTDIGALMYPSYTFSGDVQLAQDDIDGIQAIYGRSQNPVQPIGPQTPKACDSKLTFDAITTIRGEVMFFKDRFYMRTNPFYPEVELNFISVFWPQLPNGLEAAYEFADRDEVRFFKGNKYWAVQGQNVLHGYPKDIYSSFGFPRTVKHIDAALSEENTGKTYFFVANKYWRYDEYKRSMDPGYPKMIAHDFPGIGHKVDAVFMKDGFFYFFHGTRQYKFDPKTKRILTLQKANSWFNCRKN
Assay: Collagenase inhibition assay
Assay type: biochemical
Conditions: acetylated 3H type 1 bovine collagen, 37° C., 18 h
Protocol: Procedure 2: The ability of test compounds to inhibit collagenase was investigated using the following procedure.
Collagenase Inhibition Assay:
The potency of compounds to act as inhibitors of collagenase was determined by the method of Cawston and Barrett (Anal. Biochem. 99, 340-345, 1979), hereby incorporated by reference, whereby a 1 mM solution of the inhibitor being tested or dilutions thereof, was incubated at 37° C. for 18 h with collagen and human recombinant collagenase, from synovial fibroblasts cloned, expressed and purified from E. Coli, (buffered with 150 mM Tris, pH 7.6. containing 15 mM calcium chloride, 0.05% Brij 35.200 mM sodium chloride and 0.02% sodium azide). The collagen was acetylated ^3H type 1 bovine collagen prepared by the method of Cawston and Murphy (methods in Enzymology 80. 711,1981) The samples were centrifuged to sediment undigested collagen and an aliquot of the radioactive supernatant removed for assay on a scintillation counter as a measure of hydrolysis. The collagenase activity in the presence of 1 mM inhibitor, or dilution thereof, was compared to activity in a control devoid of inhibitor and the results reported as that concentration effecting 50% of the collagenase (IC50).

| pIC50 | SMILES |
| --- | --- |
| ≥ 5.00 | CC(C)C[C@H](C(=O)NO)N(Cc1cccnc1)S(=O)(=O)Cc1ccc2sccc2c1 [Example 8] |
| ≥ 5.00 | COCCOCCN([C@@H](C(=O)NO)c1ccccc1)S(=O)(=O)Cc1ccc2sccc2c1 [Example 1, (R)-2-{(Benzo[b]thiophen-5-ylmethanesulfonyl)[2-(2-methoxyethoxy)-ethyl]amino}-N-hydroxy-2-phenylacetamide] |
| ≥ 5.00 | O=C(NO)[C@@H](C1CCCCC1)N(Cc1ccco1)S(=O)(=O)Cc1ccc2sccc2c1 [Example 14, (R)-2-[(Benzo[b]thiophen-5-ylmethanesulfonyl)(furan-2-ylmethyl)-amino]-2-cyclohexyl-N-hydroxy-acetamide] |
| ≥ 5.00 | O=C(NO)C(c1ccccc1)N(Cc1cccnc1)S(=O)(=O)Cc1ccc2sccc2c1 (racemic) [Example 2, (R,S)-2-[(Benzo[b]thiophen-5-ylmethanesulfonyl)(pyridin-3-ylmethyl)-amino]-N-hydroxy-2-phenylacetamide] |
